From patent US20240041877A1, “DOSAGE REGIME AND METHOD FOR TREATING PULMONARY ARTERIAL HYPERTENSION” (Altavant Sciences GmbH, priority 2019, published 2024)

Assay: Part 2 (MAD): plasma pharmacokinetics after BID oral KAR5585 for 14 days (incl. accumulation ratios and dose proportionality)
Conditions: for AUC0-12, Day 1 / AUC0-24, Day 14: mean
[1] = 100 mg KAR5585 BID, fasted, Part 2 Cohort 1
[2] = 100 mg KAR5585 BID, fed, Cohort 2
[3] = 100 mg KAR5585 BID, fed, Part 2 Cohort 2
[4] = 100 mg/dose Fasted Cohort 1, Day 1 AM, Geo. Mean
[5] = 100 mg/dose Fasted Cohort 1, Day 1 AM, Mean
[6] = 100 mg/dose Fasted Cohort 1, Day 14, Geo. Mean
[7] = 100 mg/dose Fasted Cohort 1, Day 14, Mean
[8] = 100 mg/dose Fed Cohort 2, Day 1 AM, Geo. Mean
[9] = 100 mg/dose Fed Cohort 2, Day 1 AM, Mean
[10] = 100 mg/dose Fed Cohort 2, Day 1 PM, Geo. Mean
[11] = 100 mg/dose Fed Cohort 2, Day 1 PM, Mean
[12] = 100 mg/dose Fed Cohort 2, Day 7 AM, Geo Mean
[13] = 100 mg/dose Fed Cohort 2, Day 7 AM, Mean
[14] = 100 mg/dose Fed Cohort 2, Day 7 PM, Geo Mean
[15] = 100 mg/dose Fed Cohort 2, Day 7 PM, Mean
[16] = 100 mg/dose Fed Cohort 2, Day 14, Geo Mean
[17] = 100 mg/dose Fed Cohort 2, Day 14, Mean
[18] = 200 mg/dose Fed Cohort 3, Day 1 AM, Geo Mean
[19] = 200 mg/dose Fed Cohort 3, Day 1 AM, Mean
[20] = 200 mg/dose Fed Cohort 3, Day 1 PM, Geo. Mean

From the text: Food effect was to be evaluated in Part 1, Period 2.
Pharmacokinetic data were to be summarized descriptively.

CCOC(=O)[C@@H]1CC2(CCN(c3cc(O[C@H](c4ccc(Cl)cc4-c4ccccc4)C(F)(F)F)nc(N)n3)CC2)CN1 [KAR5585, (S)-ethyl 8-(2-amino-6-((R)-1-(5-chloro-[1,1′-biphenyl]-2-yl)-2,2,2-trifluoroethoxy)pyrimidin-4-yl)-2,8-diazaspiro[4.5]decane-3-carboxylate]
half-life, Day 14 (100 mg KAR5585 BID, fasted): 2.49 h | time peak plasma concentrations were reached, Day 1 (100 mg KAR5585 BID, fasted, Cohort 1): 0.75 to 2.0 h | AUC0-12, Day 1 [1]: 62.8 ng·h/mL | AUC0-24, Day 14 [1]: 99.8 ng·h/mL | Mean CL/F, Day 1 (100 mg KAR5585 BID, fed): 2100 L/h | Mean steady-state CL/F, Day 14 (100 mg KAR5585 BID, fed): 880 L/h | mean apparent elimination half-life, Day 14 (100 mg KAR5585 BID, fed): 2.73 h | Cmax (peak mean concentration), Day 1 [2]: 18.4 ng/mL | Cmax (peak mean concentration), Day 14 [2]: 30 ng/mL | mean Cmax plasma concentrations, range on all dosing days [2]: 18.4 to 44.1 ng/mL | median time to peak plasma concentrations, range on all dosing days and times [2]: 0.75 to 4 h | AUC0-12, Day 1 [3]: 55.5 ng·h/mL | AUC0-24, Day 14 [3]: 122 ng·h/mL | C12 [4]: BLQ | CL/F [4]: 1850 L/h | Cmax/D [4]: 0.158 (ng/mL)/mg | AUC0-12 [5]: 62.8 ng·h/mL | AUC0-∞ [5]: 71.1 ng·h/mL | C12 [5]: BLQ | CL/F [5]: 2380 L/h | Cmax/D [5]: 0.167 (ng/mL)/mg | t1/2 [5]: 2.23 h | AUC0-12 [6]: 78.2 ng·h/mL | AUC0-24 [6]: 82.3 ng·h/mL | AUC0-24/D [6]: 0.823 (hr*ng/mL)/mg | AUC0-∞ [6]: 85 ng·h/mL | C24 [6]: BLQ | CL/F [6]: 1280 L/h | Cmax [6]: 20.1 ng/mL | Cmax/D [6]: 0.201 (ng/mL)/mg | t1/2 [6]: 2.36 h | AUC0-12 [7]: 92.4 ng·h/mL | AUC0-24 [7]: 99.8 ng·h/mL | AUC0-24/D [7]: 0.998 (hr*ng/mL)/mg | AUC0-∞ [7]: 105 ng·h/mL | C24 [7]: BLQ | CL/F [7]: 1450 L/h | Cmax/D [7]: 0.213 (ng/mL)/mg | t1/2 [7]: 2.49 h | AUC0-12 [8]: 51.2 ng·h/mL | AUC0-∞ [8]: 51.7 ng·h/mL | C12 [8]: BLQ | CL/F [8]: 1940 L/h | Cmax [8]: 17.7 ng/mL | Cmax/D [8]: 0.177 (ng/mL)/mg | t1/2 [8]: 1.37 h | AUC0-12 [9]: 55.5 ng·h/mL | AUC0-∞ [9]: 55.9 ng·h/mL | C12 [9]: BLQ | CL/F [9]: 2100 L/h | Cmax [9]: 18.4 ng/mL | Cmax/D [9]: 0.184 (ng/mL)/mg | t1/2 [9]: 1.42 h | AUC0-12 [10]: 136 ng·h/mL | AUC0-24 [10]: 214 ng·h/mL | AUC0-24/D [10]: 1.07 (hr*ng/mL)/mg | AUC0-∞ [10]: 152 ng·h/mL | CL/F [10]: 658 L/h | Cmax [10]: 39.8 ng/mL | Cmax/D [10]: 0.398 (ng/mL)/mg | t1/2 [10]: 1.82 h | AUC0-12 [11]: 143 ng·h/mL | AUC0-24 [11]: 226 ng·h/mL | AUC0-24/D [11]: 1.13 (hr*ng/mL)/mg | AUC0-∞ [11]: 156 ng·h/mL | CL/F [11]: 675 L/h | Cmax [11]: 44.1 ng/mL | Cmax/D [11]: 0.441 (ng/mL)/mg | t1/2 [11]: 1.87 h | AUC0-12 [12]: 127 ng·h/mL | AUC0-∞ [12]: 137 ng·h/mL | C12 [12]: BLQ | CL/F [12]: 788 L/h | Cmax [12]: 29.8 ng/mL | Cmax/D [12]: 0.298 (ng/mL)/mg | t1/2 [12]: 2.82 h | AUC0-12 [13]: 129 ng·h/mL | AUC0-∞ [13]: 139 ng·h/mL | C12 [13]: BLQ | CL/F [13]: 800 L/h | Cmax [13]: 31.3 ng/mL | Cmax/D [13]: 0.313 (ng/mL)/mg | t1/2 [13]: 2.86 h | AUC0-12 [14]: 142 ng·h/mL | AUC0-24 [14]: 278 ng·h/mL | AUC0-24/D [14]: 1.39 (hr*ng/mL)/mg | AUC0-∞ [14]: 168 ng·h/mL | C12 [14]: 6.27 ng/mL | CL/F [14]: 699 L/h | Cmax [14]: 25.8 ng/mL | Cmax/D [14]: 0.258 (ng/mL)/mg | t1/2 [14]: 3.52 h | AUC0-12 [15]: 145 ng·h/mL | AUC0-24 [15]: 282 ng·h/mL | AUC0-24/D [15]: 1.41 (hr*ng/mL)/mg | AUC0-∞ [15]: 173 ng·h/mL | CL/F [15]: 717 L/h | Cmax/D [15]: 0.284 (ng/mL)/mg | t1/2 [15]: 3.80 h | AUC0-12 [16]: 114 ng·h/mL | AUC0-24 [16]: 121 ng·h/mL | AUC0-24/D [16]: 1.21 (hr*ng/mL)/mg | AUC0-∞ [16]: 121 ng·h/mL | C12 [16]: BLQ | C24 [16]: BLQ | CL/F [16]: 874 L/h | Cmax [16]: 28.5 ng/mL | Cmax/D [16]: 0.285 (ng/mL)/mg | t1/2 [16]: 2.64 h | AUC0-12 [17]: 115 ng·h/mL | AUC0-24 [17]: 122 ng·h/mL | AUC0-24/D [17]: 1.22 (hr*ng/mL)/mg | AUC0-∞ [17]: 122 ng·h/mL | C12 [17]: BLQ | C24 [17]: BLQ | CL/F [17]: 880 L/h | Cmax [17]: 30.0 ng/mL | Cmax/D [17]: 0.300 (ng/mL)/mg | t1/2 [17]: 2.73 h | Mean CL/F, Day 1 (200 mg KAR5585 BID, fed): 830 L/h | Mean steady-state CL/F, Day 14 (200 mg KAR5585 BID, fed): 1200 L/h | mean Cmax plasma concentrations, range on all dosing days (200 mg KAR5585 BID, fed, Cohort 3): 42.6 to 90.9 ng/mL | AUC0-12 [18]: 243 ng·h/mL | AUC0-∞ [18]: 258 ng·h/mL | C12 [18]: 5.60 ng/mL | CL/F [18]: 774 L/h | Cmax [18]: 80.7 ng/mL | Cmax/D [18]: 0.403 (ng/mL)/mg | t1/2 [18]: 2.81 h | AUC0-12 [19]: 257 ng·h/mL | AUC0-∞ [19]: 275 ng·h/mL | C12 [19]: 5.61 ng/mL | CL/F [19]: 830 L/h | Cmax [19]: 87.8 ng/mL | Cmax/D [19]: 0.439 (ng/mL)/mg | t1/2 [19]: 2.91 h | AUC0-12 [20]: 333 ng·h/mL | AUC0-24 [20]: 583 ng·h/mL | AUC0-24/D [20]: 1.46 (hr*ng/mL)/mg
